This is an account of results in US10934283B2, “COMT inhibiting methods and compositions” (LIEBER INSTITUTE FOR BRAIN DEVELOPMENT, priority 2015, dated 2021).

Molecules are shown by their SMILES.

The conditions of data set [1]: Russ, et al. 1999; cited from earlier work.
The conditions of data set [2]: clinical use; Olanow and Watkins 2007; cited from earlier work.
The conditions of data set [3]: Nutt and Fellman 1984; cited from earlier work.
Data set [4] concerns the target T1, aromatic amino acid decarboxylase (AAAD) (Homo sapiens, UniProt P20711).
T1 sequence (P20711 1-480): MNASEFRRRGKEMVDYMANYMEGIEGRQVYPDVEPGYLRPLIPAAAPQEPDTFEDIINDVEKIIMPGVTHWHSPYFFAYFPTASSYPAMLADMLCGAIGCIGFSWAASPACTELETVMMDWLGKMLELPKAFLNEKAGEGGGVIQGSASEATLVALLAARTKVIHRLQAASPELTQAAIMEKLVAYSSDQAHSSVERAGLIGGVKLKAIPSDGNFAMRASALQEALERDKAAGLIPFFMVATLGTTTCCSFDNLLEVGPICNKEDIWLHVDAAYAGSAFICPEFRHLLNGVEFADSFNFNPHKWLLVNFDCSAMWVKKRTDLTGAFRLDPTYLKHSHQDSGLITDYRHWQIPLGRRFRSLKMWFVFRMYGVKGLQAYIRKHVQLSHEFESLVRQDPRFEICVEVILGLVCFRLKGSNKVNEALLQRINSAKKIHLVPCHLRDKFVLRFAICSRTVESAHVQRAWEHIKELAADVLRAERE
Particulars: given with L-DOPA; Nutt, Woodward et al. 1985; cited from earlier work.

The target in data set [5] is T2, catechol-O-methyltransferase (COMT) (Homo sapiens, UniProt P21964).
T2 construct: M51A variant) was expressed in HEK 293F cells
T2 sequence (P21964 52-271 limits assumed): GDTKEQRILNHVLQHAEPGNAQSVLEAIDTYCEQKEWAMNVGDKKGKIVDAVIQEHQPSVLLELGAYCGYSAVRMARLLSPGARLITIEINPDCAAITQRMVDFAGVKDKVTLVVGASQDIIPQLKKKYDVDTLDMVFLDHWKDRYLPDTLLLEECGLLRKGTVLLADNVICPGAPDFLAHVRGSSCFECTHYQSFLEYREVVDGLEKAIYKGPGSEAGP
Kind of data set: COMT inhibition assay (HTRF, production of SAH from SAM). It is filed as biochemical. The settings on record: table does not say MB-COMT or S-COMT. In outline:
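Membranes from HEK293F cells expressing MB-COMT (M51A variant) incubated with 20 μM SAM and 1.5 μM dopamine plus compound (10 concentrations) for 40 min at 37 °C; S-COMT (Val158) at 0.15 ng/well used 100 μM dopamine, 15 min. SAH measured by HTRF against a standard curve; pIC50 from 4-parameter logistic fit.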
On the technique in general: TR-FRET usually uses a lanthanide donor and a delayed reading to cut background.

`Cc1ccc(C(=O)c2cc(O)c(O)c([N+](=O)[O-])c2)cc1` [tolcapone]: the brain penetration result in data set [1] is “low but measurable”. The liver injury entry in data set [2] was “serious liver injury, including three deaths”.
On to `N[C@@H](Cc1ccc(O)c(O)c1)C(=O)O` [L-DOPA, L-dihydroxyphenylalanine], for which the “percentage of exogenously administered L-DOPA that reaches the brain” value in data set [3] is listed as roughly 1%.
`C[C@@](Cc1ccc(O)c(O)c1)(NN)C(=O)O` [Carbidopa]: in data set [4], the “reduction of the efficacious L-DOPA dose” value is 60-80%.
As for `CCN(CC)C(=O)/C(C#N)=C/c1cc(O)c(O)c([N+](=O)[O-])c1` [entacapone], the brain penetration entry in data set [1] is recorded as “negligible”.
As to `O=c1cc2n(cc1O)CCN(Cc1ccccc1)C2c1ccccc1` (centres unmarked) [Example 116, 2-benzyl-7-hydroxy-1-phenyl-1,2,3,4-tetrahydro-8H-pyrido[1,2-a]pyrazin-8-one], the “Activity range (pIC50)” value in data set [5] is listed as “+++ (three plus signs (+++) is associated with a pIC50 of above about 7)”.
Same read-out and setting: the entry for `Cc1cccc(C(C)N2CCn3cc(O)c(=O)cc3C2)c1` (centres unmarked) [Example 71, 7-hydroxy-2-[1-(3-methylphenyl)ethyl]-1,2,3,4-tetrahydro-8H-pyrido[1,2-a]pyrazin-8-one] is “++ (two plus signs (++) is associated with a pIC50 of from about 6 to 7)”; for `CC(c1ccc(C(F)(F)F)cc1)N1CCn2cc(O)c(=O)cc2C1` (centres unmarked) [Example 70, 7-hydroxy-2-{1-[4-(trifluoromethyl)phenyl]ethyl}-1,2,3,4-tetrahydro-8H-pyrido[1,2-a]pyrazin-8-one] it is “++ (two plus signs (++) is associated with a pIC50 of from about 6 to 7)”; for `O=c1cc2n(cc1O)CCN(C(CO)c1ccccc1)C2` (centres unmarked) [Example 100, 7-hydroxy-2-(2-hydroxy-1-phenylethyl)-1,2,3,4-tetrahydro-8H-pyrido[1,2-a]pyrazin-8-one] it is “+ (a single plus (+) is associated with a pIC50 of from about 4.5 to 6)”.
Still for that read-out and setting: the value for `O=c1cc2n(cc1O)CCN(Cc1ccc(Cl)c(Cl)c1)C2` [Example 25, 2-(3,4-dichlorobenzyl)-7-hydroxy-1,2,3,4-tetrahydro-8H-pyrido[1,2-a]pyrazin-8-one] was “+++ (three plus signs (+++) is associated with a pIC50 of above about 7)”; that for `O=c1cc2n(cc1O)CCN(C1CCc3cccc(F)c31)C2` (centres unmarked) [Example 79, 2-(7-fluoro-2,3-dihydro-1H-inden-1-yl)-7-hydroxy-1,2,3,4-tetrahydro-8H-pyrido[1,2-a]pyrazin-8-one] was “+++ (three plus signs (+++) is associated with a pIC50 of above about 7)”.
